Patent US6441195B1, “Substituted sulphonylamino(thio) carbonyl compounds” (Bayer Aktiengesellschaft, priority 1995, dated 2002)

Experiments:
Format in all cases: in vivo
[1] = test system: Ambrosia; test: Pre-emergence test/Greenhouse, Ambrosia; conditions: after three weeks
In short: (§1)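 Emulsifier-formulated compound applied by soil watering ~24 h after sowing; damage scored at three weeks as % of untreated control.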

[2] = test system: weeds; test: Pre-emergence test (greenhouse), activity against weeds; conditions: in words
In short: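 Three weeks after treatment, % damage relative to untreated plants is scored, 0% meaning no effect. Seeds in normal soil received, roughly one day post-sowing, an aqueous dilution of an acetone/emulsifier concentrate, with the rate per unit area, not concentration, being the relevant dose.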

[3] = test system: weeds; test: Post-emergence test (greenhouse), activity against weeds; conditions: in words
Description: (§2) Solvent: 5 parts by weight of acetone
(§3) Emulsifier: 1 part by weight of alkylaryl polyglycol ether
(§4) To produce a suitable preparation of active compound, 1 part by weight of active compound is mixed with the stated amount of solvent, the stated amount of emulsifier is added and the concentrate is diluted with water to the desired concentration.
(§5) Test plants which have a height of 5-15 cm are sprayed with the preparation of the active compound in such a way as to apply the particular amounts of active compound desired per unit area. The concentration of the spray liquor is chosen so that the particular amounts of active compound desired are applied in 2000 l of water/ha.
(§6) After three weeks, the degree of damage to the plants is rated in % damage in comparison to the development of the untreated control.
(§7) 0%=no action (like untreated control)

[4] = test system: Lolium; test: Pre-emergence test/Greenhouse, Lolium; conditions: after three weeks
In short: as §1

[5] = test system: Maize; test: Pre-emergence test/Greenhouse, Maize; conditions: in vivo
In short: as §1

[6] = test system: Maize; test: Post-emergence test/greenhouse, Maize; conditions: greenhouse, after three weeks
Description: as §2, §3, §4, §5, §6, §7

[7] = test system: Sorghum; test: Post-emergence test/greenhouse, Sorghum; conditions: greenhouse, after three weeks
Description: as §2, §3, §4, §5, §6, §7

[8] = test system: Lolium; test: Post-emergence test/greenhouse, Lolium; conditions: greenhouse, after three weeks
Description: as §2, §3, §4, §5, §6, §7

[9] = test system: Stellaria; test: Post-emergence test/greenhouse, Stellaria; conditions: greenhouse, after three weeks
Description: as §2, §3, §4, §5, §6, §7

[10] = test system: Matricaria; test: Post-emergence test/greenhouse, Matricaria; conditions: greenhouse, after three weeks
Description: as §2, §3, §4, §5, §6, §7

[11] = test system: Solanum; test: Pre-emergence test/Greenhouse, Solanum; conditions: after three weeks
In short: as §1

[12] = test system: Sorghum; test: Pre-emergence test/Greenhouse, Sorghum; conditions: after three weeks
In short: as §1

[13] = test system: Digitaria; test: Post-emergence test/greenhouse, Digitaria; conditions: greenhouse, after three weeks
Description: as §2, §3, §4, §5, §6, §7

[14] = test system: Amaranthus; test: Post-emergence test/greenhouse, Amaranthus; conditions: greenhouse, after three weeks
Description: as §2, §3, §4, §5, §6, §7

[15] = test system: Soya beans; test: Pre-emergence test/Greenhouse, Soya beans; conditions: in vivo
In short: as §1

[16] = test system: Matricaria; test: Pre-emergence test/Greenhouse, Matricaria; conditions: after three weeks
In short: as §1

[17] = test system: Poa; test: Pre-emergence test/Greenhouse, Poa; conditions: after three weeks
In short: as §1

[18] = test system: Echinochloa; test: Post-emergence test/greenhouse, Echinochloa; conditions: greenhouse, after three weeks
Description: as §2, §3, §4, §5, §6, §7

[19] = test system: Gallium; test: Post-emergence test/greenhouse, Gallium; conditions: greenhouse, 60 g of ai./ha, after three weeks
Description: as §2, §3, §4, §5, §6, §7

SMILES | degree of damage to the plants (% damage vs untreated control), Ambrosia ([1]; 30 g of ai./ha) [%] | activity against weeds [2] | activity against weeds [3] | degree of damage to the plants (% damage vs untreated control), Lolium ([4]; 30 g of ai./ha) [%] | degree of damage to the plants (% damage vs untreated control), Maize [5] [%] | degree of damage to the plants (% damage vs untreated control), Solanum ([11]; 30 g of ai./ha) [%] | degree of damage to the plants (% damage vs untreated control), Sorghum ([12]; 30 g of ai./ha) [%] | degree of damage to the plants (% damage vs untreated control), Soya beans [15] [%] | degree of damage to the plants (% damage vs untreated control), Matricaria ([16]; 30 g of ai./ha) [%] | degree of damage to the plants (% damage vs untreated control), Poa ([17]; 30 g of ai./ha) [%] | degree of damage, Maize ([6]; 60 g of ai./ha) [%] | degree of damage, Sorghum ([7]; 60 g of ai./ha) [%] | degree of damage, Lolium ([8]; 60 g of ai./ha) [%] | degree of damage, Stellaria ([9]; 60 g of ai./ha) [%] | degree of damage, Matricaria ([10]; 60 g of ai./ha) [%] | degree of damage, Digitaria ([13]; 60 g of ai./ha) [%] | degree of damage, Echinochloa ([18]; 60 g of ai./ha) [%] | degree of damage, Gallium [19] [%] | degree of damage, Amaranthus ([14]; 60 g of ai./ha) [%] | also measured
CCc1nn(C(=O)NS(=O)(=O)c2c(C)csc2C(=O)OC)c(=O)n1C [Example 5] | 95 | very strong activity against weeds | very strong activity against weeds | 95 | 0 | 95 | 90 | 20 | 95 | 95 | – | – | – | – | – | – | – | – | – | degree of damage, Maize ([6]; 30 g of ai./ha): 10%; degree of damage, Sorghum ([7]; 30 g of ai./ha): 90%; degree of damage, Lolium ([8]; 30 g of ai./ha): 70%; degree of damage, Stellaria ([9]; 30 g of ai./ha): 90%; degree of damage, Matricaria ([10]; 30 g of ai./ha): 95%; degree of damage, Digitaria ([13]; 30 g of ai./ha): 95%; degree of damage, Amaranthus ([14]; 30 g of ai./ha): 100%; degree of damage, Echinochloa ([18]; 30 g of ai./ha): 80%
CCOC(=O)c1cccc(C)c1S(=O)(=O)NC(=O)n1nc(SC)n(C)c1=O [Example 7] | – | very strong activity against weeds | very strong activity against weeds | – | 0 | – | – | 0 | – | – | 15 | 100 | 95 | 100 | 95 | 95 | 95 | 95 | – | degree of damage to the plants (% damage vs untreated control), Ambrosia ([1]; 60 g of ai./ha): 95%; degree of damage to the plants (% damage vs untreated control), Lolium ([4]; 60 g of ai./ha): 95%; degree of damage to the plants (% damage vs untreated control), Sorghum ([12]; 60 g of ai./ha): 95%; degree of damage to the plants (% damage vs untreated control), Matricaria ([16]; 60 g of ai./ha): 95%
CCOC(=O)c1scc(C)c1S(=O)(=O)NC(=O)n1nc(OCC)n(C)c1=O [Example 54] | 95 | very strong activity against weeds | very strong activity against weeds | 95 | 0 | 95 | 80 | – | 95 | 95 | 30 | 95 | 95 | 100 | 100 | – | 95 | 85 | 100 | –
CCOc1nn(C(=O)NS(=O)(=O)c2c(C)cccc2C(=O)OC(C)C)c(=O)n1C [Example 44] | – | very strong activity against weeds | very strong activity against weeds | – | 30 | – | – | 0 | – | – | 50 | 100 | 70 | – | 95 | 60 | 90 | 95 | 100 | degree of damage to the plants (% damage vs untreated control), Ambrosia ([1]; 8 g of ai./ha): 95%; degree of damage to the plants (% damage vs untreated control), Lolium ([4]; 8 g of ai./ha): 95%; degree of damage to the plants (% damage vs untreated control), Solanum ([11]; 8 g of ai./ha): 95%; degree of damage to the plants (% damage vs untreated control), Sorghum ([12]; 8 g of ai./ha): 95%; degree of damage to the plants (% damage vs untreated control), Matricaria ([16]; 8 g of ai./ha): 95%; degree of damage to the plants (% damage vs untreated control), Poa ([17]; 8 g of ai./ha): 95%
